Structures are written as SMILES.

The subject of the assay is MV-4-11 cells. The assay can be described thus: Gene expression microarray analysis (Affymetrix PrimeView) and GSEA. The class given is cell-based, human. On the set-up: RFU PODN (11730768_x_at) / Fold change /veh PODN (11730768_x_at) / RFU LINC00158 (11744669_a_at) / Fold change /veh LINC00158 (11744669_a_at) / RFU DUSP10 (11751237_a_at) / Fold change /veh DUSP10 (11751237_a_at) / RFU ID3 (11757404_x_at) / Fold change /veh ID3 (11757404_x_at) / RFU PLEKHG5 (11737974_s_at) / Fold change /veh PLEKHG5 (11737974_s_at) / RFU LRRC4B (11730491_at) / Fold change /veh LRRC4B (11730491_at) / RFU GIMAP4 (11747438_a_at) / Fold change /veh GIMAP4 (11747438_a_at) / RFU KRT8 (11758183_x_at) / Fold change /veh KRT8 (11758183_x_at) / RFU CNN1 (11734310_a_at) / Fold change /veh CNN1 (11734310_a_at) / RFU VPS37D (11726825_at) / Fold change /veh VPS37D (11726825_at) / RFU C10orf10 (11716522_x_at) / Fold change /veh C10orf10 (11716522_x_at) / RFU KIR2DL2 /// KIR2DL4 /// KIR2DL5A /// KIR2DL5B /// KIR2DS1 /// KIR2DS2 /// KIR2DS3 /// KIR2DS4 /// KIR3DL3 /// KIR3DL3 /// KIR3DS1 (11738374_at) / Fold change /veh KIR2DL2 /// KIR2DL4 /// KIR2DL5A /// KIR2DL5B /// KIR2DS1 /// KIR2DS2 /// KIR2DS3 /// KIR2DS4 /// KIR3DL3 /// KIR3DL3 /// KIR3DS1 (11738374_at) / RFU C1QL1 (11718748_at) / Fold change /veh C1QL1 (11718748_at) / RFU TMPRSS4 (11747572_a_at) / Fold change /veh TMPRSS4 (11747572_a_at) / RFU HAMP (11756126_x_at) / Fold change /veh HAMP (11756126_x_at) / RFU RNFT2 (11725882_a_at) / Fold change /veh RNFT2 (11725882_a_at) / RFU NR4A2 (11747474_a_at) / Fold change /veh NR4A2 (11747474_a_at) / RFU ABCC12 (11746883_a_at) / Fold change /veh ABCC12 (11746883_a_at) / RFU TMEM136 (11760407_x_at) / Fold change /veh TMEM136 (11760407_x_at) / RFU CLDN22 /// WWC2 (11732394_at) / Fold change /veh CLDN22 /// WWC2 (11732394_at) / RFU HLA-DPB1 (11760878_x_at) / Fold change /veh HLA-DPB1 (11760878_x_at) / RFU SPINT1 (11716480_a_at) / Fold change /veh SPINT1 (11716480_a_at) / RFU GAP43 (11754022_s_at) / Fold change /veh GAP43 (11754022_s_at) / RFU A4GNT (11735810_at) / Fold change /veh A4GNT (11735810_at) / RFU PRB3 (11715151_x_at) / Fold change /veh PRB3 (11715151_x_at) / RFU TUBB4B (11761932_at) / Fold change /veh TUBB4B (11761932_at) / RFU CAPN14 (11732068_a_at) / Fold change /veh CAPN14 (11732068_a_at) / RFU TMCC2 (11721928_a_at) / Fold change /veh TMCC2 (11721928_a_at) / RFU IRGQ (11745062_a_at) / Fold change /veh IRGQ (11745062_a_at) / RFU FAM174B (11720279_a_at) / Fold change /veh FAM174B (11720279_a_at) / RFU TMPRSS4 (11748680_a_at) / Fold change /veh TMPRSS4 (11748680_a_at) / RFU FAM212B (11763350_a_at) / Fold change /veh FAM212B (11763350_a_at) / RFU PLEKHG5 (11743358_a_at) / Fold change /veh PLEKHG5 (11743358_a_at) / RFU ZSCAN30 (11745921_a_at) / Fold change /veh ZSCAN30 (11745921_a_at) / RFU CMKLR1 (11741424_a_at) / Fold change /veh CMKLR1 (11741424_a_at) / RFU LOC101060620 /// MAPK8IP1 (11723275_at) / Fold change /veh LOC101060620 /// MAPK8IP1 (11723275_at) / RFU SPTSSB (11747773_x_at) / Fold change /veh SPTSSB (11747773_x_at) / RFU PRSS12 (11739890_at) / Fold change /veh PRSS12 (11739890_at) / RFU BIN1 (11741810_x_at) / Fold change /veh BIN1 (11741810_x_at) / RFU WNT11 (11732464_a_at) / Fold change /veh WNT11 (11732464_a_at) / RFU C10orf10 (11716521_a_at) / Fold change /veh C10orf10 (11716521_a_at) / RFU C5orf56 (11738089_at) / Fold change /veh C5orf56 (11738089_at) / RFU CYB561 (11721691_x_at) / Fold change /veh CYB561 (11721691_x_at) / RFU ANKRD19P (11752326_a_at) / Fold change /veh ANKRD19P (11752326_a_at) / RFU OR2T12 /// OR2T33 /// OR2T8 (11738714_s_at) / Fold change /veh OR2T12 /// OR2T33 /// OR2T8 (11738714_s_at) / RFU VCAN (11748164_a_at) / Fold change /veh VCAN (11748164_a_at) / RFU JSRP1 (11732532_at) / Fold change /veh JSRP1 (11732532_at) / RFU KRTAP10-11 (11738290_x_at) / Fold change /veh KRTAP10-11 (11738290_x_at) / RFU MYO3A (11730013_a_at) / Fold change /veh MYO3A (11730013_a_at) / RFU EBF3 (11725865_a_at) / Fold change /veh EBF3 (11725865_a_at) / RFU CAMK2N1 (11719241_x_at) / Fold change /veh CAMK2N1 (11719241_x_at) / RFU C5orf56 (11738088_a_at) / Fold change /veh C5orf56 (11738088_a_at) / RFU OLFML3 (11715873_a_at) / Fold change /veh OLFML3 (11715873_a_at) / RFU LOC100653217 /// NTM (11731650_a_at) / Fold change /veh LOC100653217 /// NTM (11731650_a_at) / RFU MAPK11 (11762145_a_at) / Fold change /veh MAPK11 (11762145_a_at) / RFU FIZ1 (11724087_x_at) / Fold change /veh FIZ1 (11724087_x_at) / RFU OASL (11726364_x_at) / Fold change /veh OASL (11726364_x_at) / RFU SOX15 (11748057_x_at) / Fold change /veh SOX15 (11748057_x_at) / RFU CD79A (11719716_a_at) / Fold change /veh CD79A (11719716_a_at) / RFU HIST1H1D (11736915_at) / Fold change /veh HIST1H1D (11736915_at) / RFU CASKIN2 (11723855_a_at) / Fold change /veh CASKIN2 (11723855_a_at) / RFU LOC730098 (11760151_x_at) / Fold change /veh LOC730098 (11760151_x_at) / RFU OR4N2 (11742367_at) / Fold change /veh OR4N2 (11742367_at) / RFU PRRT2 (11749266_a_at) / Fold change /veh PRRT2 (11749266_a_at) / RFU SNX32 (11753110_a_at) / Fold change /veh SNX32 (11753110_a_at) / RFU CDHR5 (11726645_a_at) / Fold change /veh CDHR5 (11726645_a_at) / RFU RCAN1 (11760418_a_at) / Fold change /veh RCAN1 (11760418_a_at) / RFU FAM167A (11723789_a_at) / Fold change /veh FAM167A (11723789_a_at) / RFU FAM26E (11764081_at) / Fold change /veh FAM26E (11764081_at) / RFU ISYNA1 (11749810_s_at) / Fold change /veh ISYNA1 (11749810_s_at) / RFU ACY1 (11761880_at) / Fold change /veh ACY1 (11761880_at) / RFU 11764098_at / Fold change /veh 11764098_at / RFU SAMD14 (11745864_x_at) / Fold change /veh SAMD14 (11745864_x_at) / RFU NPB (11741838_a_at) / Fold change /veh NPB (11741838_a_at) / RFU TMPRSS6 (11731388_a_at) / Fold change /veh TMPRSS6 (11731388_a_at) / RFU KRTAP10-2 (11738614_at) / Fold change /veh KRTAP10-2 (11738614_at) / RFU ARHGAP8 /// PRR5-ARHGAP8 (11727945_x_at) / Fold change /veh ARHGAP8 /// PRR5-ARHGAP8 (11727945_x_at) / RFU KRTAP5-7 /// NADSYN1 (11734609_at) / Fold change /veh KRTAP5-7 /// NADSYN1 (11734609_at) / RFU RASL12 (11751679_a_at) / Fold change /veh RASL12 (11751679_a_at) / RFU CDKN2B (11736163_a_at) / Fold change /veh CDKN2B (11736163_a_at) / RFU PRF1 (11729649_at) / Fold change /veh PRF1 (11729649_at) / RFU, ZNF638 /// ZNF638-IT1 / Fold change vs veh, ZNF638 /// ZNF638-IT1 / RFU, PANK3 / Fold change vs veh, PANK3 / RFU, SH3YL1 / Fold change vs veh, SH3YL1 / RFU, ZEB2 / Fold change vs veh, ZEB2 / RFU, NRIP1 / Fold change vs veh, NRIP1 / RFU, PTTG1IP / Fold change vs veh, PTTG1IP / RFU, CAPN2 / Fold change vs veh, CAPN2 / RFU, MED14 / Fold change vs veh, MED14 / RFU, SNORA58 / Fold change vs veh, SNORA58 / RFU, C1orf63 / Fold change vs veh, C1orf63 / RFU, LRRFIP1 / Fold change vs veh, LRRFIP1 / RFU, NDUFAF7 / Fold change vs veh, NDUFAF7 / RFU, SLC12A2 / Fold change vs veh, SLC12A2 / RFU, IBTK / Fold change vs veh, IBTK / RFU, ESF1 / Fold change vs veh, ESF1 / Fold change vs veh, TMEM50B / RFU, TAOK1 / Fold change vs veh, TAOK1 / RFU, ACBD3 / Fold change vs veh, ACBD3 / RFU, TMA16 / Fold change vs veh, TMA16 / RFU, RWDD3 / Fold change vs veh, RWDD3 / RFU, BCAT1 / Fold change vs veh, BCAT1 / RFU, EDEM3 / Fold change vs veh, EDEM3 / RFU, TMEM33 / Fold change vs veh, TMEM33 / RFU, WDR75 / Fold change vs veh, WDR75 / RFU, AHCTF1 / Fold change vs veh, AHCTF1 / RFU, TFRC / Fold change vs veh, TFRC / RFU, ZDHHC17 / Fold change vs veh, ZDHHC17 / RFU, NOM1 / Fold change vs veh, NOM1 / RFU, ARL8B / Fold change vs veh, ARL8B / RFU, ZBTB11 / Fold change vs veh, ZBTB11 / RFU, TAMM41 / Fold change vs veh, TAMM41 / RFU, KIAA1704 /// LOC100996395 / Fold change vs veh, KIAA1704 /// LOC100996395 / RFU, ING1 / Fold change vs veh, ING1 / RFU, TRMT61B / Fold change vs veh, TRMT61B / RFU, FUBP3 / Fold change vs veh, FUBP3 / RFU, TP53 / Fold change vs veh, TP53 / RFU, TNKS2 / Fold change vs veh, TNKS2 / RFU, ZFP14 / Fold change vs veh, ZFP14 / RFU, ACTR2 / Fold change vs veh, ACTR2 / RFU, PPP3R1 / Fold change vs veh, PPP3R1 / RFU, PIK3R1 / Fold change vs veh, PIK3R1 / RFU, HNRNPA1 / Fold change vs veh, HNRNPA1 / RFU, RNF170 / Fold change vs veh, RNF170 / RFU, ZNF28 / Fold change vs veh, ZNF28 / RFU, RNGTT / Fold change vs veh, RNGTT / RFU, OGT / Fold change vs veh, OGT / RFU, BRD1 / Fold change vs veh, BRD1 / RFU, MARS / Fold change vs veh, MARS / RFU, ZNF655 / Fold change vs veh, ZNF655 / RFU, FAHD1 / Fold change vs veh, FAHD1 / RFU, BDP1 / Fold change vs veh, BDP1 / RFU, LRRCC1 / Fold change vs veh, LRRCC1 / RFU, ARID1A / Fold change vs veh, ARID1A / RFU, ZNF146 / Fold change vs veh, ZNF146 / RFU, ZNF330 / Fold change vs veh, ZNF330 / RFU, GPN3 / Fold change vs veh, GPN3 / RFU, C9orf123 / Fold change vs veh, C9orf123 / RFU, N4BP2L2 / Fold change vs veh, N4BP2L2 / RFU, ARFIP1 / Fold change vs veh, ARFIP1 / RFU, FAM179B / Fold change vs veh, FAM179B / RFU, BCL10 / Fold change vs veh, BCL10 / RFU, UHRF1BP1L / Fold change vs veh, UHRF1BP1L / RFU, BET1 / Fold change vs veh, BET1 / RFU, CNOT2 / Fold change vs veh, CNOT2 / RFU, ZNF268 / Fold change vs veh, ZNF268 / Fold change vs veh, ZNF507 / RFU, DGCR2 / Fold change vs veh, DGCR2 / RFU, WDSUB1 / Fold change vs veh, WDSUB1 / Fold change vs veh, HSP90B1 /// MIR3652 / RFU, ADSS / Fold change vs veh, ADSS / RFU, GK / Fold change vs veh, GK / RFU, ZNF148 / Fold change vs veh, ZNF148 / RFU, TAF9 / Fold change vs veh, TAF9 / RFU, SLC1A5 / Fold change vs veh, SLC1A5 / RFU, SLMO2 / Fold change vs veh, SLMO2 / RFU, ABCC4 / Fold change vs veh, ABCC4 / RFU, LOC101060439 /// RAP1B / Fold change vs veh, LOC101060439 /// RAP1B / RFU, RFX7 / Fold change vs veh, RFX7 / RFU, GTPBP10 / Fold change vs veh, GTPBP10 / RFU, CNEP1R1 / Fold change vs veh, CNEP1R1 / RFU, BIVM-ERCC5 /// ERCC5 / Fold change vs veh, BIVM-ERCC5 /// ERCC5 / RFU, ILF3 / Fold change vs veh, ILF3 / RFU 11762660_at / Fold change /veh 11762660_at / RFU VCAN (11757783_s_at) / Fold change /veh VCAN (11757783_s_at) / RFU DDX43 (11728927_at) / Fold change /veh DDX43 (11728927_at) / RFU KRT8 (11758188_x_at) / Fold change /veh KRT8 (11758188_x_at) / RFU NKD1 (11759106_at) / Fold change /veh NKD1 (11759106_at) / RFU SRD5A1 (11742802_a_at) / Fold change /veh SRD5A1 (11742802_a_at) / RFU TPSAB1 /// TPSB2 (11721975_s_at) / Fold change /veh TPSAB1 /// TPSB2 (11721975_s_at) / RFU GSTM3 (11746129_a_at) / Fold change /veh GSTM3 (11746129_a_at) / RFU IL23R (11737362_x_at) / Fold change /veh IL23R (11737362_x_at) / RFU TMEM51 (11727254_a_at) / Fold change /veh TMEM51 (11727254_a_at) / RFU PIWIL2 (11732686_x_at) / Fold change /veh PIWIL2 (11732686_x_at) / RFU ORM1 (11744905_x_at) / Fold change /veh ORM1 (11744905_x_at) / RFU CCDC152 (11743942_at) / Fold change /veh CCDC152 (11743942_at) / RFU ECM1 (11717891_a_at) / Fold change /veh ECM1 (11717891_a_at) / RFU IL23R (11748794_a_at) / Fold change /veh IL23R (11748794_a_at) / RFU TNFAIP8L3 (11732012_x_at) / Fold change /veh TNFAIP8L3 (11732012_x_at) / RFU MBOAT4 (11741988_at) / Fold change /veh MBOAT4 (11741988_at) / RFU 11764193_at / Fold change /veh 11764193_at / RFU TMEM53 (11763286_at) / Fold change /veh TMEM53 (11763286_at) / RFU MAGEB2 (11727129_at) / Fold change /veh MAGEB2 (11727129_at) / RFU TMEM200A (11744735_a_at) / Fold change /veh TMEM200A (11744735_a_at) / RFU CCDC152 (11751479_a_at) / Fold change /veh CCDC152 (11751479_a_at) / RFU FAM211A (11726209_a_at) / Fold change /veh FAM211A (11726209_a_at) / RFU RGS16 (11746705_a_at) / Fold change /veh RGS16 (11746705_a_at) / RFU VCAN (11755009_s_at) / Fold change /veh VCAN (11755009_s_at) / RFU RHOB (11743442_s_at) / Fold change /veh RHOB (11743442_s_at) / RFU RGS16 (11720943_a_at) / Fold change /veh RGS16 (11720943_a_at) / RFU RGS16 (11720944_at) / Fold change /veh RGS16 (11720944_at) / RFU, VPS4B / Fold change vs veh, VPS4B / RFU, CREB1 / Fold change vs veh, CREB1 / RFU, DNAJC13 / Fold change vs veh, DNAJC13 / RFU, GNAQ / Fold change vs veh, GNAQ / RFU, CDK5R1 / Fold change vs veh, CDK5R1 / RFU, ZRANB3 / Fold change vs veh, ZRANB3 / RFU, CUL4A / Fold change vs veh, CUL4A / RFU, CCNY / Fold change vs veh, CCNY / RFU, UFL1 / Fold change vs veh, UFL1 / RFU, COG3 / Fold change vs veh, COG3 / RFU, DIAPH2 / Fold change vs veh, DIAPH2 / RFU, SKA2 / Fold change vs veh, SKA2 / RFU, AFF3 / Fold change vs veh, AFF3 / RFU, LMF1 / Fold change vs veh, LMF1 / RFU, IPO11 / Fold change vs veh, IPO11 / RFU, DFFB / Fold change vs veh, DFFB / RFU, FOXP1 / Fold change vs veh, FOXP1 / RFU, CARD8 / Fold change vs veh, CARD8 / RFU, STRN3 / Fold change vs veh, STRN3 / RFU, ADK / Fold change vs veh, ADK / RFU, RASSF2 / Fold change vs veh, RASSF2 / RFU, WIPF1 / Fold change vs veh, WIPF1 / RFU, LARP1B / Fold change vs veh, LARP1B / RFU, RASA1 / Fold change vs veh, RASA1 / RFU, RB1 / Fold change vs veh, RB1 / RFU, PPFIA1 / Fold change vs veh, PPFIA1 / RFU, MAT2A / Fold change vs veh, MAT2A / RFU, CCT5 / Fold change vs veh, CCT5 / RFU, WDR92 / Fold change vs veh, WDR92 / RFU, CUX1 / Fold change vs veh, CUX1 / RFU, TTC7A / Fold change vs veh, TTC7A / RFU, TMEM135 / Fold change vs veh, TMEM135 / RFU, DEPTOR / Fold change vs veh, DEPTOR / RFU, CPM / Fold change vs veh, CPM / RFU, DNAJB6 / Fold change vs veh, DNAJB6 / RFU, CACNA2D3 / Fold change vs veh, CACNA2D3 / RFU, DTX4 / Fold change vs veh, DTX4 / RFU, TFCP2 / Fold change vs veh, TFCP2 / RFU, GMCL1 /// GMCL1P1 / Fold change vs veh, GMCL1 /// GMCL1P1 / RFU, AEBP2 / Fold change vs veh, AEBP2 / RFU, SNHG1 /// SNORD22 /// SNORD25 /// SNORD26 /// SNORD27 /// SNORD28 /// SNORD29 /// SNORD31 / Fold change vs veh, SNHG1 /// SNORD22 /// SNORD25 /// SNORD26 /// SNORD27 /// SNORD28 /// SNORD29 /// SNORD31 / Fold change (Aza/veh), C12orf56 (ProbeSet 11735607_a_at) / Fold change (ACY-1035/veh), C12orf56 (ProbeSet 11735607_a_at) / Fold change (Aza/veh), FGFR1OP (ProbeSet 11751329_s_at) / Fold change (ACY-1035/veh), FGFR1OP (ProbeSet 11751329_s_at) / Fold change (Aza/veh), VPS36 (ProbeSet 11739960_a_at) / Fold change (ACY-1035/veh), VPS36 (ProbeSet 11739960_a_at) / RFU SYPL1 (11715823_x_at) / Fold change /veh SYPL1 (11715823_x_at) / RFU IGFBP7 (11715501_s_at) / Fold change /veh IGFBP7 (11715501_s_at) / RFU REEP3 (11722064_at) / Fold change /veh REEP3 (11722064_at) / RFU IGLL1 (11728026_x_at) / Fold change /veh IGLL1 (11728026_x_at): dose or concentration left out as unconfirmed. The settings on record: MV-4-11 cells, 48 hours.

Consider `Nc1ncn([C@@H]2O[C@H](CO)[C@@H](O)[C@H]2O)c(=O)n1` [azacitidine], for which the “RFU NR4A2 (11747474_a_at)” value is given as 22.61 RFU.

The values above are taken from publication PMC5218480 (PLoS ONE, 2017).
